Measured values: US5480906A, “Stereochemical Wortmannin derivatives” (priority 1994, dated 1996)

Columns and labels:
[1] = target: purified bovine brain PI 3-kinase; assay: Assay of purified PI-3 kinase activity (32P incorporation into phosphatidylinositol, TLC/scintillation); type: biochemical; conditions: for IC50 for inhibition of PI-3-kinase: purified bovine brain PI 3-kinase, 10 min preincubation, 20 μM ATP, 3% DMSO
Experimental: In another, preferred, method, PI 3-kinase was prepared from bovine brain. Two bovine brains (wet weight about 900 g) were obtained from a local slaughterhouse within minutes of slaughter, packed on ice, and homogenized within one hour. Brains were trimmed of excess fat and blood vessels and then homogenized using a Tekmar Tissuemizer (Cincinnati, Ohio) at 4° C. in 20 mM of Tris(pH 8.3) containing 250 mM of sucrose, 6 mM of β-mercaptoethanol, 1 μg/ml of leupeptin, 1 μg/ml of pepstatin A, 0.4 mM of PMSF, and 1 mM of MgCl2.
Following centrifugation for 60 minutes at 10,000 x g, the pH of the supernatant (about 1200 mL) was lowered to 5.75 using dropwise addition of 1M acetic acid at 4° C. After stirring for an additional 15 minutes at 4° C., the solution was centrifuged for 60 minutes at 13,500 x g. The supernatant was discarded. Pellets were resuspended in Buffer A (20 mM of Tris, pH 8.3, containing 6 mM of β-mercaptoethanol, 0.1 mM of ethylene glycol-bis(β-aminoethyl ether) N,N,N',N'-tetraacetic acid (EGTA), 1 μg/mL of leupeptin, 1 μg/mL of pepstatin A, and 1 mM of MgCl2), and loaded onto a Fast Flow Q Sepharose column (300 ml) at a flow rate of 5 mL/min at 4° C. After loading, the column was washed with 3 volumes of Buffer A containing 0.1M of KCl and the kinase was then eluted with a linear gradient of Buffer A/0.1M KCl to Buffer A/0.6M KCl at 3 mL/min over 7 volumes.
Fractions were assayed for PI 3-kinase activity using 10 μL of the fraction and phosphatidylinositol as substrate as described below. PI 4-kinase eluted in the breakthrough; PI 3-kinase eluted at approximately 0.3M of KCl. The PI 3-kinase pool was subjected to a 40% ammonium sulfate precipitation. Following centrifugation (60 minutes at 13,500 x g), pellets were resuspended in Buffer B (10 mM of potassium phosphate, pH 7.4, containing 6 mM of β-mercaptoethanol, 1 μg/mL of leupeptin, 1 μg/mL of pepstatin A, and 1 mM of MgCl2), and loaded onto a 50 mL hydroxylapatite column (Calbiochem, Inc., La Jolla, Calif.) at 2.5 mL/minute. The column was washed with 150 mL Buffer B until the A280 baseline reached zero, and the kinase was then eluted with a linear gradient of 10-320 mM of KH2 PO4 at 1 mL/minute over 450 minutes.
Active fractions were pooled and then loaded at 3 mL/minute onto a MonoS column (8 ml) (Pharmacia, Inc., Piscataway, N.J.) equilibrated in Buffer C (50 mM of MES, pH 6.2, containing 6 mM of β-mercaptoethanol, 0.1 mM of EGTA, 1 μg/mL of leupeptin, 1 μg/mL of pepstatin A, and 1 mM of MgCl2). PI 3-kinase was eluted with a linear gradient of 0-0.4M KCl in Buffer C over 120 minutes. In assaying fractions, two pools of PI 3-kinase activity were routinely found. The bulk of the activity was found in the flow-through, while about 20% of the activity was eluted in the gradient. Although the material in the gradient had considerable PI 4-kinase activity, essentially no PI 4-kinase activity was associated with the PI 3-kinase eluted in the flow-through. Therefore, the MonoS flow-through was concentrated by tangential flow filtration on a Mini-Ultrasette Omega 50 K membrane (Filtron, Inc., Northborough, Mass.) and diluted in Buffer C to lower the conductivity. The material was then reloaded onto the MonoS column using the above conditions. The PI 3-kinase bound to the column during the wash and was eluted in the gradient. Two pools of phosphatidylinositol kinase activity were obtained in the gradient; each was assayed for PI 3-kinase and PI 4-kinase activity.
Pool I from the MonoS column was diluted with Buffer A and chromatographed on MonoQ (1 ml) and eluted with a gradient of 0-0.4M KCl in Buffer A. The final pool was assayed for PI 3-kinase and PI 4-kinase activity.
PI 3-kinase activity was measured as previously described by Matter, W. F., et al., Biochemical and Biophysical Research Communications, 186: 624-631 (1992). […]

laboratory animals = conditions: even in low dosages, pure form; cited from earlier work

Structure (SMILES) | IC50 for inhibition of PI-3-kinase [1] [ng/mL] | inhibition vs. PI-3-kinase ([1]; at 10 ng/ml) [%] | toxicity to living creatures (lethality) (laboratory animals)
CCC(=O)O[C@@H]1C[C@]2(C)[C@@H](O)CC[C@H]2C2=C1[C@]1(C)c3c(coc3C2=O)C(=O)O[C@@H]1COC [e, 11-propionyl-17-hydroxy-desacetyl-dihydro-Wortmannin] | 0.38 | – | –
COC[C@H]1OC(=O)c2coc3c2[C@@]1(C)C1=C(C3=O)[C@@H]2CCC(=O)[C@@]2(C)C[C@H]1OC(=O)Cc1ccccc1 [n, 11-phenylacetyl-desacetyl-Wortmannin] | 1.53 | – | –
COC[C@H]1OC(=O)c2coc3c2[C@@]1(C)C1=C(C3=O)[C@@H]2CCC(=O)[C@@]2(C)C[C@H]1OC(=O)CCN(C)C [k, 11-dimethylaminopropionyl-desacetyl-Wortmannin] | 8.6 | – | –
COC[C@H]1OC(=O)c2coc3c2[C@@]1(C)C1=C(C3=O)[C@@H]2CCC(=O)[C@@]2(C)C[C@H]1O [f, 11-desacetyl wortmannin] | 10 | 50 | –
CCCCC(=O)O[C@@H]1C[C@]2(C)C(=O)CC[C@H]2C2=C1[C@]1(C)c3c(coc3C2=O)C(=O)O[C@@H]1COC [i, 11-valeryl-desacetyl-Wortmannin] | 1.2 | – | –
COC[C@H]1OC(=O)c2coc3c2[C@@]1(C)C1=C(C3=O)[C@@H]2CCC(=O)[C@@]2(C)C[C@H]1OC(C)=O [wortmannin, Wortmannin] | – | – | often lethal
CCN(C=C1C(=O)O[C@H](COC)[C@@]2(C)C1=C(O)C(=O)C1=C2[C@H](O)C[C@]2(C)C(=O)CC[C@@H]12)CC [b] | > 10 | – | –
C=CC(=O)O[C@@H]1C[C@]2(C)C(=O)CC[C@H]2C2=C1[C@]1(C)c3c(coc3C2=O)C(=O)O[C@@H]1COC [m, 11-acrylyl-desacetyl-wortmannin] | 0.95 | – | –
CCC(=O)O[C@@H]1C[C@]2(C)[C@@H](OC(C)=O)CC[C@H]2C2=C1[C@]1(C)c3c(coc3C2=O)C(=O)O[C@@H]1COC [j, 11-propionyl-17-acetyl-desacetyl-dihydro-Wortmannin] | 56.5 | – | –
COC[C@H]1OC(=O)c2coc3c2[C@@]1(C)C1=C(C3=O)[C@@H]2CCC(=O)[C@@]2(C)CC1=O [c, 11-dehydro Wortmannin] | 1.6 | – | –
COC[C@H]1OC(=O)c2coc3c2[C@@]1(C)C1=C(C3=O)[C@@H]2CCC(=O)[C@@]2(C)C[C@H]1OC(=O)CC(C)C [iA, 11-isovaleryl-desacetyl-Wortmannin] | 1.16 | – | –
COC[C@H]1OC(=O)c2coc3c2[C@@]1(C)C1=C(C3=O)[C@@H]2CCC(O)[C@@]2(C)C[C@H]1O (stereo partly shown) [d, 11,17-desacetyl-dihydro Wortmannin] | > 10 | – | –
CCC(=O)O[C@@H]1C[C@]2(C)C(=O)CC[C@H]2C2=C1[C@]1(C)c3c(coc3C2=O)C(=O)O[C@@H]1COC [g, 11-propionyl-desacetyl-Wortmannin] | 0.6 | – | –
COC[C@H]1OC(=O)c2coc3c2[C@@]1(C)C1=C(C3=O)[C@@H]2CCC(=O)[C@@]2(C)C[C@H]1OC(=O)CCl [l, 11-chloroacetyldesacetyl-Wortmannin] | 1.3 | – | –
CCCC(=O)O[C@@H]1C[C@]2(C)C(=O)CC[C@H]2C2=C1[C@]1(C)c3c(coc3C2=O)C(=O)O[C@@H]1COC [h, 11-butyryl-desacetyl-Wortmannin] | 0.4 | – | –
